Assay results: US12226405B2, “Compounds and compositions for inhibiting the activity of HIF2-alpha and their methods of use” (Novartis AG, priority 2020, dated 2025)

Experiments:
[1] = target: HIF2α PAS-B domain (236-350, biotinylated on the N-terminus) (Homo sapiens (Human), UniProt Q99814)
Procedure: The assay buffer contained 50 mM Tris-HCl pH7 (Sigma), 20 mM NaCl (Fluka), 0.02% BSA (Sigma), 0.005% Triton X-100 (Pierce) and 1 mM DTT (Fluka). After a 30 min incubation period, 5 μL Streptavidin PVT SPA Beads (Perkin Elmer) at 1.2 mg/mL, diluted in the buffer, were added.

[2] = tested on: HIF2α-dependent transcription in 786-O-HRE-Luc cells; assay: In vitro cellular hypoxia response element (HRE) reporter gene assay (RGA) for HIF2α; format: cell-based, human; conditions: Homo sapiens, 24 hours incubation
Procedure: (§1) Stock solutions of compounds were prepared at a concentration of 10 mM in DMSO and stored at 4° C. Where necessary to afford a full dose-response curve, the stock solutions were pre-diluted in DMSO to 1,000-fold the desired reduced start concentration. On the day after cell seeding, eleven 2-fold serial dilutions of each compound were dispensed directly into the cell assay plates using either HP 300D non-contact Digital Dispenser (TECAN) or a ATS100 acoustic dispenser (EDC Biosystems).
The ability of compounds to inhibit HIF2α- and HIF1α-dependent transcription was assessed in 786-O-HRE-Luc and RCC4-HRE-Luc cells, respectively. The putative unselective inhibition of firefly luciferase activity or expression was assessed in 786-O-UB6-Luc and RCC4-UB6-Luc cells, respectively. The reporter lines were generated as follows: 786-O (RRID: CVCL_1051) and RCC4 (RRID: CVCL_0498) clear cell renal carcinoma cell lines were obtained from ATCC and Celeste Simon (University of Pennsylvania), respectively. Either cell line was transduced with a lentiviral vector in which the expression of a PEST-destabilized version of firefly-luciferase is under the control of either a minimal promoter coupled to four copies of a minimal hypoxia response element (HRE) sequence (pLenti 4×HRE Luc PEST), or a promoter from the house-keeping UBC gene (pLenti UB6 Luc PEST). In short, for the construction of the pLenti 4×HRE Luc PEST vector, 4×HRE DNA oligonucleotides were synthesized, annealed and cloned into pGL4.27 plasmid vector (Promega) predigested with NheI and HindIII restriction enzymes. The sequence of the two DNA oligonucleotides was as follows: NheI 4×HRE HindIII FWD: […] (SEQ ID NO: 8); NheI 4×HRE HindIII REV […] (SEQ ID NO: 9). The 4×HRE Luc PEST fragment was then PCRed from this plasmid with restriction enzyme sites NheI and XhoI at the two ends, and inserted into pLenti6/BLOCK iT DEST (Thermo Fisher Scientific) predigested with NheI and XhoI restriction enzymes. For the construction of the pLenti UB6 Luc PEST vector, the Luc PEST sequence was PCRed from pGL4.27 (Promega) using EcoRV and XhoI restriction enzymes at the two ends, and inserted into pLenti6/UBC/V5/DEST (Thermo Fisher Scientific) predigested with the same enzymes. 786-O and RCC4 cells (300,000 per well of a 6 well plate) were infected in the presence of 10 μg/ml polybrene with lentivirus harvested two days after transfection of HEK293-FT (ThermoFisher Scientific #R70007) cells (80% confluent in a 100 cm^2 dish) with a mix of 1.5 ml OptiMEM (ThermoFisher Scientific #31985062) containing 3 μg of the desired plasmids and 9 μl of ViralPower Packaging mix (ThermoFisher Scientific #K497500), and 1.5 ml OptiMEM containing 36 μl Lipofectamine 2000 (ThermoFisher Scientific #11668019). Successfully infected cells were selected using blasticidin (Gibco #A11139-03) at a final concentration of 5 μg/ml. The resulting stable cell lines were named 786-O pLenti 4×HRE Luc PEST (short: 786-O-HRE-Luc), 786-O pLenti UB6 Luc PEST (short: 786-O-UB6-Luc), RCC4 pLenti 4×HRE Luc PEST (short: RCC4-HRE-Luc) and RCC4 pLenti UB6 Luc PEST (short: RCC4-UB6-Luc). All 4 cell lines were maintained in growth medium composed of DMEM (GIBCO #11995-065), 2 mM L-Glutamine (BioConcept #5-10K50-H), 10% fetal calf serum (Gibco #A31608-01), 1× Penicillin/Streptomycin (BioConcept #4-01F00-H), 1 mM Sodium pyruvate (BioConcept #5-60F00-H) and 5 μg/ml blasticidin (Gibco #A11139-03) at 37° C. in a humidified 5% CO2 incubator.
For the reporter gene assay, the individual cell lines were seeded at 2,500 cells/20 μL/well into white-wall, clear-bottom 384-well plates (Greiner #781098) and incubated over night at 37° C. prior to addition of serial compound dilutions as described above. […]

[3] = tested on: HIF2α-regulated expression of the endogenous target gene hEGLN3 in 786-O cells; assay: Cellular iScript assay for HIF2α (quantitative RT-PCR of hEGLN3); format: cell-based, human; conditions: Homo sapiens, 786-0, 48 hours incubation
Procedure: as §1
Compound-mediated modulation of the HIF2α-regulated expression of the endogenous target gene hEGLN3 (OMIM: 606426), as well as beta-actin (OMIM: 102630) as a house-keeping control, was assess in 786-O cells (RRID CVCL_1051) using a quantitative RT-PCR approach. In short, 786-O cells were maintained in growth medium composed of DMEM (GIBCO #11995-065), 2 mM L-Glutamine (BioConcept #5-10K50-H), 1× Penicillin/Streptomycin (BioConcept #4-01F00-H), 10% fetal calf serum (Gibco #A31608-01), 1 mM Sodium pyruvate (BioConcept #5-60F00-H). Cells were seeded at 1,000 cells/20 μL/well into white-wall, clear-bottom 384-well plates (Greiner #781098) and incubated over night at 37° C. prior to addition of serial compound dilutions as described above. Following incubation for 48 hours at 37° C., medium supernatant was discarded and the plate blotted dry by inverting on a tissue. The same procedure was repeated following one wash with 20 μL phosphate-buffered saline. Following addition of 25 μL/well iScript sample preparation reagent (BioRad #170-8899) using a 16-channel Matrix pipette, the plate was incubated for 2 min at room temperature. 20 μL lysate supernatant was then removed and transferred to a new 384 well plate (Costar #3656) and diluted 1:3 by adding 5 μL of the lysate to 10 μL H2O using a Bravo liquid handler (Agilent). 2 μL of the diluted lysate was added to the 8 μL of a mastermix containing 5 μL iTaq Universal Probes One-step kit (BioRad #172-5141), 0.25 μL iScript reverse transcription supermix (BioRad #1708840), 0.25 μL 40×HEX-ZEN-labeled TaqMan probe for beta-actin (IDT #Hs.PT.39a.22214847: Probe 5′ HEX-TCA TCC ATG/ZEN/GTG AGC TGG CGG-3′ (SEQ ID NO: 2) Iowa Black FQ, Primer 1: ACA GAG CCT CGC CTT TG (SEQ ID NO: 3); Primer 2: CCT TGC ACA TGC CGG (SEQ ID NO: 4) AG), 0.25 μL, 40×FAM-ZEN-labeled TaqMan probe for hEGLN3 (IDT #Hs.PT.58.189348: Probe 5′ 6-FAM-TTT GGC TTC/ZEN/TGC CCT TTC TTC AGC-3′ (SEQ ID NO: 5) Iowa Black FQ, Primer 1: CACGGTCAGTCTTCAGTGAG (SEQ ID NO: 6); Primer 2: CGCAACCAGATATGCTATGACT (SEQ ID NO: 7)), 2.25 μL RNase-free water, prelaid in a 384 well plate (ABI #4309849) using a 16-channel Matrix pipette. The plate was sealed with a PCR-compatible optical film (MicroAmp, ABI #4360954) and centrifuged (1500 rpm, 5 min, +4° C.) to collect all reagents in the bottom of the well and to remove bubbles. The plate content was amplified on a 7900HT thermal cycler (ABI) using the following conditions: Step 1: 50° C. for 10 min, Step 2: 95° C. for 3 min, Step 3 (40×): 95° C. for 15 s, 60° C. for 1 min. ROX (reaction volume 10 μL) was used as a passive reference. Data were collected with manual adjustment of the Ct threshold (beta-actin: 0.046, hEGLN3: 0.06) and were analyzed using the 2^(−ΔΔCt) method. Thus, for each sample, the following values were calculated: 2^(−Ct)a for beta-actin, 2^(−Ct)e for EGLN3, and 2^(−ΔCt) calculated as (2^(−Ct)e/2^(−Ct)a). The mean 2^(−ΔCt) as well as the corresponding standard deviation was calculated for each sample. Taking the DMSO-treated sample as a reference, the 2^(−ΔΔCt) for each sample was calculated as follows: 2^(−ΔΔCt)=2^(−ΔCt)sample/(2^(−ΔCt)DMSO). After calculating differential expression as 2^(−ΔΔCt) for each sample, it was then expressed as a percentage (×100) to obtain a dose-response curve in % of DMSO control and IC50s were calculated using a four-parametric fit model.

Sequence of HIF2α PAS-B domain (236-350, biotinylated on the N-terminus) (Q99814 236-350): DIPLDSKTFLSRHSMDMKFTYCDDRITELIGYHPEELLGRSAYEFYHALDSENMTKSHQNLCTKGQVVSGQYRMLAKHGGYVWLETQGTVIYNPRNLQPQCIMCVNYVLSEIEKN

SMILES | IC50 [1] [nM] | IC50 [2] [nM] | IC50 [3] [nM]
N#CC1=CN2C[C@@]3(CCOc4c3ccc(I)c4F)N=C2C(OC(F)F)=C1 [Example 51, (S)-8′-(difluoromethoxy)-8-fluoro-7-iodo-3′H-spiro[chroman-4,2′-imidazo[1,2-a]pyridine]-6′-carbonitrile] | 9 | 509 | 81
FC(F)OC1=CC(C(F)(F)F)=CN2C[C@@]3(CCCc4cc(C(F)(F)F)ccc43)N=C12 [Example 86, (S)-8-(difluoromethoxy)-6,6′-bis(trifluoromethyl)-3′,4′-dihydro-2′H,3H-spiro[imidazo[1,2-a]pyridine-2,1′-naphthalene]] | 13 | 179 | 64
FC(F)OC1=CC(C(F)(F)F)=CN2C[C@@]3(CCOc4cc(Cl)ccc43)N=C12 [Example 41, (S)-7-chloro-8′-(difluoromethoxy)-6′-(trifluoromethyl)-3′H-spiro[chroman-4,2′-imidazo[1,2-a]pyridine]] | 11 | 283 | 54
COc1ccc2c(c1F)CCC[C@@]21CN2C=C(C(F)(F)F)C=C(OC(F)F)C2=N1 [Example 84, (S)-8-(difluoromethoxy)-5′-fluoro-6′-methoxy-6-(trifluoromethyl)-3′,4′-dihydro-2′H,3H-spiro[imidazo[1,2-a]pyridine-2,1′-naphthalene]] | 3 | 184 | 69
Fc1ccc2c(c1Cl)CCC[C@@]21CN2C=C(C(F)(F)F)C=C(OC(F)F)C2=N1 [Example 82, (5)-5′-chloro-8-(difluoromethoxy)-6′-fluoro-6-(trifluoromethyl)-3′,4′-dihydro-2′H,3H-spiro[imidazo[1,2-a]pyridine-2,1′-naphthalene]] | ≤ 3 | 155 | 39
[2H]C([2H])([2H])c1nccc2c1C(F)(F)CC[C@@]21CN2C=C(C(F)(F)F)C=C(OC(F)F)C2=N1 [Example 33, (S)-8-(difluoromethoxy)-8′,8′-difluoro-1′-(methyl-d3)-6-(trifluoromethyl)-7′,8′-dihydro-3H, 6′H-spiro[imidazo[1,2-a]pyridine-2,5′-isoquinoline]] | 17 | 547 | 78
N#CC1=CN2C[C@@]3(CCC(F)(F)c4c3ccc(Br)c4F)N=C2C(OC(F)F)=C1 [Example 92, (S)-6′-bromo-8-(difluoromethoxy)-4′,4′,5′-trifluoro-3′,4′-dihydro-2′H,3H-spiro[imidazo[1,2-a]pyridine-2,1′-naphthalene]-6-carbonitrile] | 29 | 626 | 153
FCOC1=CC(C(F)(F)F)=CN2C[C@@]3(CCc4c3ccc(Br)c4F)N=C12 [Example 5, (5)-5′-bromo-4′-fluoro-8-(fluoromethoxy)-6-(trifluoromethyl)-2′,3′-dihydro-3H-spiro[imidazo[1,2-a]pyridine-2,1′-indene]] | 9 | 328 | 138
Fc1cccc2c1COC[C@@]21CN2C=C(C(F)(F)F)C=C(OC(F)F)C2=N1 [Example 63, (S)-8-(difluoromethoxy)-8′-fluoro-6-(trifluoromethyl)-3H-spiro[imidazo[1,2-a]pyridine-2,4′-isochroman]] | 11 | 465 | 197
FC(F)OC1=CC(C(F)(F)F)=CN2C[C@@]3(N=C12)c1ccc(Br)cc1OC[C@@H]3F [Example 59, (2′S,3R)-7-bromo-8′-(difluoromethoxy)-3-fluoro-6′-(trifluoromethyl)-3′H-spiro[chroman-4,2′-imidazo[1,2-a]pyridine]] | 12 | 73 | 55
FC(F)OC1=CC(C(F)(F)F)=CN2C[C@@]3(CCOc4c3ccnc4Cl)N=C12 [Example 56, (S)-8′-chloro-8-(difluoromethoxy)-6-(trifluoromethyl)-2′,3′-dihydro-3H-spiro[imidazo[1,2-a]pyridine-2,4′-pyrano[2,3-c]pyridine]] | 13 | 6660 | 164
